Test results taken from patent publication US20250195553A1, “Use of Genipin-1-B-D-Gentiobioside in Preparation of Drug” (Guizhou Bailing Group Pharmaceutical Co., Ltd., priority 2023, published 2025).
Like-named read-outs stand apart in the source and are kept apart here.

Key:
[1] = test system: Mycoplasma Pneumoniae (MP); assay: Mycoplasma pneumoniae-infected mouse pneumonia model: lung index; assay type: in vivo, BALB/C mice; set-up: First Batch Inhibition Rate: unit not given here
[2] = test system: Mycoplasma Pneumoniae (MP); assay: Inflammatory factors in lung tissue of MP-infected mice (ELISA); assay type: in vivo, BALB/C mice; conditions: 42 mg/kg
Procedure: […] Each group consisted of 10 mice, with an equal number of males and females. Except for the normal control group, all mice were lightly anesthetized with isoflurane and infected intranasally with Mycoplasma Pneumoniae (50 μl per mouse) for three consecutive days. On the day of infection, each treatment group received nebulized medication once daily for four consecutive days, while the normal control group and model control group received nebulized saline under the same conditions. On the fifth day, the mice were weighed, sacrificed by cervical dislocation, and their lung tissues were dissected, weighed, and used to calculate the lung index and lung index inhibition rate; measure the levels of inflammatory factors in the lung tissue; measure the serum CRP levels; and conduct pathological examinations of the lung tissue. The results were statistically analyzed using the t-test for intergroup comparisons.
(1) Sample Collection and Storage: Tissue Homogenate Samples: After weighing, lung tissues were collected from 8 mice in each group and stored at −80° C. The MP Fastprep-24 5G Rapid Sample Preparation System was used to homogenize the tissues, followed by centrifugation at […] and 3000 r/min for 10 minutes using a low-temperature high-speed centrifuge. The supernatant was then aspirated, aliquoted, and stored at −80° C. for future use, avoiding repeated freeze-thaw cycles.
(2) The microplate, which had been equilibrated to room temperature, was removed from the sealed bag. Different concentrations of standards were added to the corresponding wells, with 50 μL per well. For experimental samples, 10 μL of sample was added to each well, followed by 40 μL of diluent. Except for the blank wells, 100 μL of HRP (Horseradish Peroxidase) was added to each well. The reaction wells were sealed with sealing tape and incubated at 37° C. for 1 hour. The plate was then washed with wash buffer four times. After the final wash, the plate was inverted and all residual liquid was patted dry on absorbent paper. 50 μL of both Substrate A and Substrate B were added to each well. The reaction wells were then sealed with sealing tape and incubated at 37° C. for 15 minutes. After that, 50 μL of stop solution was added to each well, and the absorbance at 450 nm was measured using a microplate reader within 15 minutes. The results were then calculated.

[3] = test system: Mycoplasma Pneumoniae (MP); assay: Pathological changes in lung tissue of MP-infected mice (HE staining); assay type: in vivo, BALB/C mice; set-up: Alveolitis Lesion Degree / Bronchial Damage / Histological Damage Degree: scale not given here; conditions: Azithromycin Group
Procedure: Fifty BALB/C mice, weighing 14±1 g, were randomly divided into five groups: a normal control group, a model control group, an azithromycin control group, a high-dose Genipin-1-β-D-gentiobioside group (75 mg/ml) with 15-minute nebulization, and a low-dose Genipin-1-β-D-gentiobioside group (37.5 mg/ml) with 15-minute nebulization. Each group consisted of 10 mice, with an equal number of males and females. Except for the normal control group, all mice were lightly anesthetized with isoflurane and infected intranasally with Mycoplasma Pneumoniae (50 μl per mouse) for three consecutive days. On the day of infection, each treatment group received nebulized medication once daily for four consecutive days, while the normal control group and model control group received nebulized saline under the same conditions. On the fifth day, the mice were weighed, sacrificed by cervical dislocation, and their lung tissues were dissected, weighed, and used to calculate the lung index and lung index inhibition rate; measure the levels of inflammatory factors in the lung tissue; measure the serum CRP levels; and conduct pathological examinations of the lung tissue. The results were statistically analyzed using the t-test for intergroup comparisons.
2.4 Pathological Changes in Mouse Lung Tissue (HE Staining Method)

[4] = test system: Human Coronavirus OC43 (HCoV-OC43); assay type: in vivo; conditions: mouse, in vivo
[5] = test system: Human Coronavirus OC43 (HCoV-OC43); assay type: in vivo; conditions: 90 mg/kg administration by gavage
[6] = test system: Human Respiratory Syncytial Virus (RSV); assay: RSV viral load in mouse lung tissue (RT-PCR), nebulization; assay type: in vivo; conditions: dosage 82.5 (mg/ml), nebulization time 25 min
Procedure: […] Each group consisted of 10 mice, with an equal number of males and females. Except for the normal control group, all mice were lightly anesthetized with isoflurane and infected with respiratory syncytial virus (RSV) via intranasal administration, with each mouse receiving 35 μl of the virus. On the day of infection, the treatment groups began inhalation administration. Each group received nebulization for 25 minutes once daily for four consecutive days. The normal control group and the model control group received nebulized saline under the same conditions. On the fifth day, after weighing, the mice were sacrificed by cervical dislocation, and their lung tissues were dissected, weighed, and used to calculate the lung index and lung index inhibition rate. The lung tissues were also retained for virus load, pathological examination, and inflammatory factor detection. The results were statistically analyzed using the t-test for intergroup comparisons.
After dissecting the mice, the lung tissues were collected and stored in separate containers at −80° C. in a low-temperature freezer. The lung tissues were then removed from the −80° C. freezer and placed in a clean mortar. A small amount of liquid nitrogen was poured into the mortar, and the tissues were ground into powder using a pestle. The powder was collected in a 1.5 ml centrifuge tube, and 1 ml of TRIzol Reagent was immediately added. The tube was gently tapped at the bottom to mix the sample and ensure it was resuspended as soon as possible. The centrifuge tube was then placed horizontally at room temperature and incubated for 20 minutes. Next, it was centrifuged at 4° C. and 12,000 rpm for 10 minutes. The clear supernatant was transferred to a new 1.5 ml centrifuge tube, and 0.2 ml of chloroform was added. The tube was tightly capped, vigorously shaken for 15 seconds, and then incubated at room temperature for 2-3 minutes until the liquid separated into layers. After centrifuging at 4° C. and 12,000 rpm for 15 minutes, the transparent supernatant was carefully transferred to a new 1.5 ml centrifuge tube. Then, 0.5 ml of isopropanol was added, mixed well, and incubated at room temperature for 30 minutes. Following centrifugation at 4° C. and 12,000 rpm for 10 minutes, the supernatant was discarded. The precipitate was gently washed with 1 ml of 75% ethanol (to allow the white precipitate to float slightly), and then centrifuged at 4° C. and 7,500 rpm for 5 minutes. The supernatant was completely aspirated, and the RNA precipitate was briefly dried for 5-10 minutes. The precipitate was then dissolved in 20 μl of DEPC (Diethylpyrocarbonate)-treated water and stored in a −80° C. low-temperature freezer.
Treatment of Control Nucleic Acid: DEPC-H2O was used as a negative control. For the positive control, a series of four concentrations were prepared by gradient dilution at 10^7, 10^6, 10^5, and 10^4 copies/ml.
Reagent Preparation: Mix n×18 μl of RSV nucleic acid fluorescent PCR detection mixture, n×1 μl of internal control, and n×1 μl of RT-PCR enzyme (where n is the number of reaction tubes). Shake vigorously for a few seconds and centrifuge at 3000 rpm for a few seconds.
Sample Addition: Dispense 20 μl of the above mixture into each PCR tube. Then, add 5 μl of sample nucleic acid extract, DEPC-H2O, and positive control to the respective PCR tubes. Tightly close the tube caps, centrifuge for a few seconds to ensure all liquids are at the bottom, and immediately proceed with PCR amplification.
PCR Amplification: Place the reaction tubes in a quantitative fluorescent PCR instrument. Set the cycling parameters as follows: 45° C. for 10 minutes; 95° C. for 15 minutes; then 40 cycles of 95° C. for 15 seconds→60° C. for 60 seconds. Single-point fluorescent detection is performed at 60° C., with a reaction volume of 25 μl.
Fluorescent Channel Selection: Select the FAM and HEX/VIC/JOE channels for detection. […]

[7] = test system: Lipopolysaccharide (LPS)-induced pneumonia model in mice; assay: LPS-induced pneumonia model in mice, intravenous injection: lung index; assay type: in vivo, ICR mice; conditions: 50 mg/kg i.v. once daily 2 days
Procedure: (§1) Sixty healthy mice, weighing 18˜20 g, half male and half female, were selected and randomly grouped after stratification by weight; they were divided into a normal control group, a model control group, three Genipin-1-β-D-gentiobioside dose groups (150 mg/kg/d, 75 mg/kg/d, 37.5 mg/kg/d), and a positive control drug Sivelestat Sodium 50 mg/kg/d group, with 10 mice in each group, half male and half female. After grouping, each treatment group was administered intravenously at 20 ml/kg once daily for 2 consecutive days, while the normal control group and model control group were injected with physiological saline. One hour after the second dose, except for the normal control group, the other groups were lightly anesthetized with isoflurane, and a 20 mg/ml LPS physiological saline solution was administered intranasally to the mice at 0.05 ml/mouse to induce the pneumonia model. Six hours after infection, the animals were sacrificed, dissected, and their lungs were removed and weighed to calculate the lung index (lung index=lung weight/body weight×100%).

[8] = test system: Lipopolysaccharide (LPS)-induced pneumonia model in mice; assay: Inflammatory factors in lung tissue of LPS-induced pneumonia mice (ELISA); assay type: in vivo, ICR mice; conditions: dosage 50 (mg/ml), i.v.
Procedure: as §1
(1) Sample Collection and Storage: Tissue homogenate samples: The lung tissues of mice were collected and weighed, including those from mice numbered 1, 2, 3, 6, 7, and 8 in each group. The tissues were stored at […] An ultrasonic cell disruptor was used to homogenize the tissues, followed by centrifugation at […] and 1000 r/min for 10 minutes using a low-temperature high-speed centrifuge. The supernatant was then collected, aliquoted, and stored at −80° C. for future use, avoiding repeated freeze-thaw cycles.
(2) The microwell plate, which had been equilibrated to room temperature, was removed from the sealed bag. Different concentrations of standards, experimental samples, or quality control samples were added to the corresponding wells, with 100 μL per well. The reaction wells were sealed with sealing tape and incubated at room temperature for 2 hours. The plate was then washed with wash buffer, repeating the operation four times. After the final wash, the plate was inverted and all residual liquid was patted dry on absorbent paper. Next, 100 μL of enzyme-labeled detection antibody was added to each microwell. The reaction wells were sealed again with sealing tape and incubated at room temperature for another 2 hours. The washing step was repeated as described above. Then, 100 μL of substrate solution was added to each microwell and incubated at room temperature for 30 minutes, protected from light. Within 30 minutes after adding 100 μL of stop solution to each microwell, the absorbance at 450 nm was measured using a microplate reader. The results were then calculated.

[9] = 42 mg/kg administration by gavage, first batch
[10] = 42 mg/kg administration by gavage

`CC[C@H]1OC(=O)[C@H](C)[C@@H](O[C@H]2C[C@@](C)(OC)[C@@H](O)[C@H](C)O2)[C@H](C)[C@@H](O[C@@H]2O[C@H](C)C[C@H](N(C)C)[C@H]2O)[C@](C)(O)C[C@@H](C)CN(C)[C@H](C)[C@@H](O)[C@]1(C)O` [Azithromycin, azithromycin, reference compound] was tested, and the “First Batch Inhibition Rate” value [1, 9] was 65.93, the “First Batch Lung Index” value [1, 9] was 0.77 ± 0.05 and the “Second Batch Inhibition Rate” value [1, 10] was 98.72. For the same compound, the “Second Batch Lung Index” value [1, 10] was 0.62 ± 0.09, the “Second Batch Inhibition Rate” value ([1]; injection administration) was 98.26 and the “Second Batch Lung Index” value ([1]; injection administration) was 0.62 ± 0.06. The “Inflammatory Factor Levels in Lung Tissue IL-1β” value [2] was 144.98 ± 15.93 pg/mL, the “Inflammatory Factor Levels in Lung Tissue IL-6” value [2] was 85.26 ± 25.59 pg/mL and the “Inflammatory Factor Levels in Lung Tissue TNF-α” value [2] was 345.86 ± 53.85 pg/mL. The “Alveolitis Lesion Degree” value [3] was 59.70, the “Bronchial Damage” value [3] was 54.80 and the “Histological Damage Degree” value [3] was 2.43 ± 0.32. For the same compound, the “Interstitial Inflammatory Cell Infiltration” value [3] was 58.80.

With `CCN(CC)CCCC(C)Nc1ccnc2cc(Cl)ccc12` (stereo not drawn) [Chloroquine, Chloroquine Phosphate, reference compound] the “Inhibition Rate (lung index)” value [4] was 42.72%, the “Lung Index” value [4] was 0.80 ± 0.05 g lung weight × 100 g/body weight and the “Inhibition Rate (lung index)” value [5] was 96.56%. For the same compound, the “Lung Index” value [5] was 0.73 ± 0.11 g lung weight × 100 g/body weight.

`NC(=O)c1ncn([C@@H]2O[C@H](CO)[C@@H](O)[C@H]2O)n1` [Ribavirin, reference compound] was tested, and the “Inhibition Rate (viral load)” value [6] was 69.54% and the “Viral Load in lung tissue” value [6] was 17063.48 ± 16203.78 copies/ng.

`CC(C)(C)C(=O)Oc1ccc(S(=O)(=O)Nc2ccccc2C(=O)NCC(=O)O)cc1` [Sivelestat Sodium, reference compound] was tested, and the “Inhibition Rate (lung index)” value [7] was 85.50, the “Lung Index” value ([7]; 6 h after LPS) was 0.86 ± 0.07 g/100 g body weight and the “Inflammatory Factor Levels in Lung Tissue IL-6” value [8] was 15.79 ± 2.08 pg/mL. The “Inflammatory Factor Levels in Lung Tissue IL-10” value [8] was 36.11 ± 4.87 pg/mL and the “Inflammatory Factor Levels in Lung Tissue TNF-α” value [8] was 98.88 ± 11.21 pg/mL.
